# In patent publication US9616129B2, “Compositions and methods for potentiating immune response, enhancing immunotherapy, and increasing vaccine potency” (Nitor Therapeutics, priority 2013, dated 2017):
# Key:
# [1] = target: T1, human TLR9 (Homo sapiens, UniProt Q9NR96); assay: TLR ligand screening, NF-κB SEAP reporter in HEK293 cells expressing TLR9; type: cell-based; details: one concentration: NTR001 10 uM, Inosine 100 uM; FIG. 2
# T1 construct: expressed in transfected cells; host or cells: HEK293
# T1 sequence (Q9NR96 26-1032): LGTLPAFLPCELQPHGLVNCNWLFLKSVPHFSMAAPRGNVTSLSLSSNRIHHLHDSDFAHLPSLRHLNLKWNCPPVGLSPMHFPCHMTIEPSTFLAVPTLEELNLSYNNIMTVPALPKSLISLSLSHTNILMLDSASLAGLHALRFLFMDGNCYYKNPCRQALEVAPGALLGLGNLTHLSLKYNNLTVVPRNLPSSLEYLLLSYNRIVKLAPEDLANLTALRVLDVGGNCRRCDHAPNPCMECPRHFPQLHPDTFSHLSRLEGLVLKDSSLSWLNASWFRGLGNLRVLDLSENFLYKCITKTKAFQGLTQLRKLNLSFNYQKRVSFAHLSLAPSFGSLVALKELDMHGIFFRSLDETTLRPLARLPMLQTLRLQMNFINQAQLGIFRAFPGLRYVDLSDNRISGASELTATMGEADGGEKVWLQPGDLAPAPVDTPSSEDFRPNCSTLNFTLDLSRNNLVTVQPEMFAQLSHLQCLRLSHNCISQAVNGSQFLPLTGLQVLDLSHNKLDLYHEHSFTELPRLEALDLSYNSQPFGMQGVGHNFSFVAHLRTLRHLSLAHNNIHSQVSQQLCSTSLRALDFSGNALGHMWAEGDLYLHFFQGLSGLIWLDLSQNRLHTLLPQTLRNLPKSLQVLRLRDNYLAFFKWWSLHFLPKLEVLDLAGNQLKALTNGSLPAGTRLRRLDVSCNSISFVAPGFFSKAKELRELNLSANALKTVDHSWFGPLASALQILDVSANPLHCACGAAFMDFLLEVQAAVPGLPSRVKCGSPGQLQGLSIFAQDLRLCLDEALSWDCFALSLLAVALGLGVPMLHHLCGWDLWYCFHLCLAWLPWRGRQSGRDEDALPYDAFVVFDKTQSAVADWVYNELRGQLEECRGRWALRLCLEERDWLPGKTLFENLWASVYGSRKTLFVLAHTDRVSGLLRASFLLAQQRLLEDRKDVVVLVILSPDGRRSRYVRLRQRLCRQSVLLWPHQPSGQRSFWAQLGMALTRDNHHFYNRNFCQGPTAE
# Procedure: (§1) TLR stimulation is tested by assessing NF-κB activation in HEK293 cells expressing a given TLR. The Secreted Embryonic Alkaline Phosphatase (SEAP) reporter is under the control of a promoter inducible by the transcription factor NF-κB. This reporter gene allows the monitoring of signaling through the TLR, based on the activation of NF-κB. The compounds are evaluated at one concentration and compared to control ligands. This step is performed in triplicate.
# [2] = target: T2, human TLR3 (Homo sapiens, UniProt O15455); assay: TLR ligand screening, NF-κB SEAP reporter in HEK293 cells expressing TLR3; type: cell-based; details: one concentration: NTR001 10 uM, Inosine 100 uM; FIG. 2
# T2 construct: expressed in transfected cells; host or cells: HEK293
# T2 sequence (O15455 24-904): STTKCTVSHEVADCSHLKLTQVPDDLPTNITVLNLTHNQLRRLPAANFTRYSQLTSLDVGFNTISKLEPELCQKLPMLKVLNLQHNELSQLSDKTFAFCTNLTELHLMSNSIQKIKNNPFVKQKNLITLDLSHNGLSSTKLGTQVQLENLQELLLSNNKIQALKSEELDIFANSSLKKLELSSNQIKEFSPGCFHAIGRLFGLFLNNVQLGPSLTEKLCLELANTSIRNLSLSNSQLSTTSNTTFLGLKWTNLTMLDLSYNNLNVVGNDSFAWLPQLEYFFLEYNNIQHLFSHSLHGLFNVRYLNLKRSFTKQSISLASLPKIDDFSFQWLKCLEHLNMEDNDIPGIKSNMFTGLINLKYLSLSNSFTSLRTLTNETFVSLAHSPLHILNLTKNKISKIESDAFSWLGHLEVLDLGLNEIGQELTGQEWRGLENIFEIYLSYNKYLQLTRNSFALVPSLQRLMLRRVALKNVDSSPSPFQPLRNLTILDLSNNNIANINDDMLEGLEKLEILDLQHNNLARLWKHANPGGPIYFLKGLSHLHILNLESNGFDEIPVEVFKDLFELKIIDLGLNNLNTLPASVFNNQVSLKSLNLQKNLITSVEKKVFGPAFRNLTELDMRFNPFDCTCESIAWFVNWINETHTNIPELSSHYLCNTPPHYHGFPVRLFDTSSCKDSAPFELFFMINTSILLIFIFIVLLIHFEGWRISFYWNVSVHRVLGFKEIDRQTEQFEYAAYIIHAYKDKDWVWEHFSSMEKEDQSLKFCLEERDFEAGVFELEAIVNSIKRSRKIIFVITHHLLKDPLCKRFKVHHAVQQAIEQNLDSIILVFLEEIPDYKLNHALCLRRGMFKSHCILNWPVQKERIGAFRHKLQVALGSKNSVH
# Procedure: as §1
# [3] = test system: B16 tumors; assay: Syngeneic mouse melanoma model; type: in vivo, C57BL/6 mice
# Procedure: Cancer cells were injected subcutaneously in right flank of each mouse, 1×10^4 cells in 0.1 ml PBS with 20% Matrigel. Treatment with the NTR001 was initiated on day 6 after injection of tumor cells. Tumor volume and survival were recorded every 3-4 days.
# [4] = test system: L. monocytogenes (ATCC Strain35152, hemolytic substrain); assay: Mouse model of L. monocytogenes infection; type: in vivo; details: Balb/c mice infected i.v. with 1×10^6 CFU; treatments per Table 3; FIGS. 7 and 9
# [5] = test system: tetanus toxoid vaccine; assay: Tetanus toxoid vaccine efficacy study (adjuvant) in mice; type: in vivo; details: compared to vehicle treated group
# Procedure: Tetanus toxoid (TT) was used to vaccinate mice thrice, two weeks apart. Mice were treated by oral administration of compounds NTR001 and NTR002 and serum was collected at various time points for antibody titer and interferon-g analysis. Mice in Groups 2-6 (Table 2) are vaccinated subcutaneously with 0.1 ml tetanus toxoid vaccine on DAYS 0, 14 and 28. Mice in Group 1 (Table 1) received no vaccine. Antibody titers for DAYS 38 are determined by ELISA using tetanus toxoid coated microtiter plates and anti-mouse conjugate. Sera from DAY 30 are assayed by ELISA for interferon-g.
SMILES,stimulatory effect on human TLR9 (NF-κB activation) [1],stimulatory effect on human TLR3 (NF-κB activation) [2],"tumor volume ([3]; B16 melanoma, C57BL/6 mice, treatment from day 6, FIG. 5)","survival ([3]; NTR001 as single agent (30 mg/kg PO week on/off or 5 mg/kg drinking water), FIG. 6)",weight loss [4],"serum interferon-g ([5]; day 30, ELISA, high dose group 60 mg/kg p.o., FIG. 4)","serum tetanus toxoid antibody titers ([5]; day 38, ELISA, p.o. 30 mg/kg (6 days of treatment) and 60 mg/kg (3 days of treatment), FIG. 3)"
OC[C@H]1O[C@@H](n2cnc3c(O)ncnc32)[C@H](O)[C@@H]1O [Inosine],do not exhibit a stimulatory effect,do not exhibit a stimulatory effect,–,–,–,–,–
"O=c1[nH]cnc2c([C@@H]3N[C@H](CO)[C@@H](O)[C@H]3O)c[nH]c12 [NTR001, 7-[(2S,3S,4R,5R)-3,4-dihydroxy-5-(hydroxymethyl)-2-pyrrolidinyl]-1,5-dihydro-4H-pyrrolo[3,2-d]pyrimidin-4-one]",do not exhibit a stimulatory effect,do not exhibit a stimulatory effect,significant decrease,0-20%,significant decrease,elevated,significantly elevated
